{
  "source": "patent US9676715B2",
  "about": "“Bis-indolic derivatives, a process for preparing the same and their uses as a drug” (UNIVERSITE JOSEPH FOURIER, priority 2011, dated 2017)",
  "experiment_in_all_cases": "MIC, Staphylococcus panel (9.2)",
  "type_in_all_cases": "cell-based",
  "key": {"[1]": {"test_system": "Staphylococcus warneri (CHUG-Swar4)", "details": "S. warneri CHUG-Swar4, 4% DMSO, 18 h", "method": "(§1) The microdilution method recommended by the Clinical and Laboratory Standard Institute [M07-A9, Vol. 32, N° 2] was used. The activity of bis-indolic compounds 3f and 4 was tested against 35 Staphylococcus bacterial strains corresponding to 12 different species,\n(§2) Bacterial inocula were prepared in Mueller Hinton broth (MH2, BioMérieux, Marcy L'Etoile, France). They were dispensed in 96 well microtiter plates (5×10^5 CFU/ml of final inoculum, 192 μL per well). Indolic compounds diluted in pure DMSO (8 μL per well, concentrated 25 times) were added to the wells as to obtain two-fold serial concentrations (0.5-32 mg/L of final concentrations). The final concentration of DMSO was 4% in each well.\n(§3) To avoid cross-contaminations in microtiter plates, one row was left blank between each strain tested. Microplates were incubated for 18 h at 37° C. in ambient air. Then MICs were read visually and, in case of visual reading difficulties, confirmed using a spectrophotometer at a wavelength of 630 nm (BioTek® EL808 Absorbance Microplate Reader). MICs corresponded to the minimum bis-indolic compound concentration that allowed complete visual growth inhibition of bacteria. Drug-free cultures served as growth controls.\n(§4) Coagulase-negative Staphylococcus strains included three reference strains purchased from CRBIP: a methicillin-susceptible S. epidermidis strain (ATCC 12228), a methicillin-resistant S. epidermidis strain (ATCC 49461), and a methicillin-susceptible S. sciuri strain (ATCC 29061). We also used clinical strains belonging to the following coagulase-negative Staphylococcus species: S. auricularis (two strains), S. warneri (five strains), S. capitis (five strains), S. haemolyticus (four strains), S. hominis (seven strains), S. cohnii (two strains), and S. saprophyticus, S. caprae and S. simulans (one strain each). Identification of the clinical strains was obtained using VITEK® 2 System (Biomérieux). The specified strain numbers correspond to an internal number of the bacterial strain collection of our laboratory."}, "[2]": {"test_system": "Staphylococcus cohnii (CHUG-Scoh2)", "details": "S. cohnii CHUG-Scoh2, 4% DMSO, 18 h", "method": "as §1, §2, §3, §4"}, "[3]": {"test_system": "Staphylococcus hominis (CHUG-Shom8)", "details": "S. hominis CHUG-Shom8, 4% DMSO, 18 h", "method": "as §1, §2, §3, §4"}, "[4]": {"test_system": "Staphylococcus capitis (CHUG-Scap5)", "details": "S. capitis CHUG-Scap5, 4% DMSO, 18 h", "method": "as §1, §2, §3, §4"}, "[5]": {"test_system": "Staphylococcus hominis (CHUG-Shom6)", "details": "S. hominis CHUG-Shom6, 4% DMSO, 18 h", "method": "as §1, §2, §3, §4"}, "[6]": {"test_system": "Staphylococcus auricularis (CHUG-Saur3)", "details": "S. auricularis CHUG-Saur3, 4% DMSO, 18 h", "method": "as §1, §2, §3, §4"}, "[7]": {"test_system": "Staphylococcus haemolyticus (CHUG-Shae4)", "details": "S. haemolyticus CHUG-Shae4, 4% DMSO, 18 h", "method": "as §1, §2, §3, §4"}, "[8]": {"test_system": "Staphylococcus capitis (CHUG-Scap7)", "details": "S. capitis CHUG-Scap7, 4% DMSO, 18 h", "method": "as §1, §2, §3, §4"}, "[9]": {"test_system": "Staphylococcus hominis (CHUG-Shom7)", "details": "S. hominis CHUG-Shom7, 4% DMSO, 18 h", "method": "as §1, §2, §3, §4"}, "[10]": {"test_system": "Staphylococcus hominis (CHUG-Shom3)", "details": "S. hominis CHUG-Shom3, 4% DMSO, 18 h", "method": "as §1, §2, §3, §4"}, "[11]": {"test_system": "Staphylococcus capitis (CHUG-Scap4)", "details": "S. capitis CHUG-Scap4, 4% DMSO, 18 h", "method": "as §1, §2, §3, §4"}, "[12]": {"test_system": "Staphylococcus hominis (CHUG-Shom5)", "details": "S. hominis CHUG-Shom5, 4% DMSO, 18 h", "method": "as §1, §2, §3, §4"}, "[13]": {"test_system": "Staphylococcus haemolyticus (CHUG-Shae6)", "details": "S. haemolyticus CHUG-Shae6, 4% DMSO, 18 h", "method": "as §1, §2, §3, §4"}, "[14]": {"test_system": "Staphylococcus warneri (CHUG-Swar5)", "details": "S. warneri CHUG-Swar5, 4% DMSO, 18 h", "method": "as §1, §2, §3, §4"}, "[15]": {"test_system": "Staphylococcus hominis (CHUG-Shom4)", "details": "S. hominis CHUG-Shom4, 4% DMSO, 18 h", "method": "as §1, §2, §3, §4"}, "[16]": {"test_system": "Staphylococcus saprophyticus (CHUG-Ssap2)", "details": "S. saprophyticus CHUG-Ssap2, 4% DMSO, 18 h", "method": "as §1, §2, §3, §4"}, "[17]": {"test_system": "Staphylococcus warneri (CHUG-Swar7)", "details": "S. warneri CHUG-Swar7, 4% DMSO, 18 h", "method": "as §1, §2, §3, §4"}, "[18]": {"test_system": "Staphylococcus simulans (CHUG-Ssim1)", "details": "S. simulans CHUG-Ssim1, 4% DMSO, 18 h", "method": "as §1, §2, §3, §4"}, "[19]": {"test_system": "Staphylococcus caprae (CHUG-Scapra1)", "details": "S. caprae CHUG-Scapra1, 4% DMSO, 18 h", "method": "as §1, §2, §3, §4"}, "[20]": {"test_system": "Staphylococcus warneri (CHUG-Swar6)", "details": "S. warneri CHUG-Swar6, 4% DMSO, 18 h", "method": "as §1, §2, §3, §4"}, "[21]": {"test_system": "Staphylococcus haemolyticus (CHUG-Shae5)", "details": "S. haemolyticus CHUG-Shae5, 4% DMSO, 18 h", "method": "as §1, §2, §3, §4"}, "[22]": {"test_system": "Staphylococcus capitis (CHUG-Scap6)", "details": "S. capitis CHUG-Scap6, 4% DMSO, 18 h", "method": "as §1, §2, §3, §4"}, "[23]": {"test_system": "Staphylococcus cohnii (CHUG-Scoh1) (MRSA)", "details": "S. cohnii CHUG-Scoh1 (MRSA), 4% DMSO, 18 h", "method": "as §1, §2, §3, §4"}},
  "data": [
    {"smiles": "CC(C)(C)OC(=O)NCC(NC(=O)c1c[nH]c2ccc(Br)cc12)c1c[nH]c2ccc(Br)cc12", "note": "(centres unmarked) [Compound 3f, tert-Butyl(2-(5-bromo-1H-indol-3-yl)-2-(5-bromo-1H-indolyl-3-carboxamido)ethyl)carbamate]", "values": [
      {"measurement": "MIC", "setting": "[1]", "value": 8, "unit": "mg/L"},
      {"measurement": "MIC", "setting": "[2]", "value": 16, "unit": "mg/L"},
      {"measurement": "MIC", "setting": "[3]", "value": 8, "unit": "mg/L"},
      {"measurement": "MIC", "setting": "[4]", "value": 16, "unit": "mg/L"},
      {"measurement": "MIC", "setting": "[5]", "value": 8, "unit": "mg/L"},
      {"measurement": "MIC", "setting": "[6]", "value": 8, "unit": "mg/L"},
      {"measurement": "MIC", "setting": "[7]", "value": 16, "unit": "mg/L"},
      {"measurement": "MIC", "setting": "[8]", "value": 16, "unit": "mg/L"},
      {"measurement": "MIC", "setting": "[9]", "value": 8, "unit": "mg/L"},
      {"measurement": "MIC", "setting": "[10]", "value": 16, "unit": "mg/L"},
      {"measurement": "MIC", "setting": "[11]", "value": 4, "unit": "mg/L"},
      {"measurement": "MIC", "setting": "[12]", "value": 8, "unit": "mg/L"},
      {"measurement": "MIC", "setting": "[13]", "value": 16, "unit": "mg/L"},
      {"measurement": "MIC", "setting": "[14]", "value": 8, "unit": "mg/L"},
      {"measurement": "MIC", "setting": "[15]", "value": 8, "unit": "mg/L"},
      {"measurement": "MIC", "setting": "[16]", "value": 8, "unit": "mg/L"},
      {"measurement": "MIC", "setting": "[17]", "value": 8, "unit": "mg/L"},
      {"measurement": "MIC", "setting": "[18]", "value": 16, "unit": "mg/L"},
      {"measurement": "MIC", "setting": "[19]", "value": 8, "unit": "mg/L"},
      {"measurement": "MIC", "setting": "[20]", "value": 8, "unit": "mg/L"},
      {"measurement": "MIC", "setting": "[21]", "value": 16, "unit": "mg/L"},
      {"measurement": "MIC", "setting": "[22]", "value": 8, "unit": "mg/L"},
      {"measurement": "MIC", "setting": "[23]", "value": 16, "unit": "mg/L"}
    ]}
  ]
}
